Experimental data from US12419956B2, “Controlled drug release system of photoresponsive nanocarriers, methods of making and using thereof” (THE UNIVERSITY OF HONG KONG, priority 2020, dated 2025).

Assays:
[1] = Photocleavage under 505 nm green LED light, determined by HPLC; type: physicochemical; settings: free DTAEA in 50% acetonitrile/H2O, 50 mW/cm^2, 1 min
Protocol: The photocleavage mechanism of coumarin carbamate derivatives was reported as carbocation formation following with the addition of —OH group in aqueous solutions (FIG. 6a).^9 To quantitatively measure the photocleavage rate of free DTAEA, quartz cuvettes containing DTAEA in 50% acetonitrile/H2O was irradiated with 505 nm green LED light. At predetermined time points, the remaining DTAEA and released DEAdcCM were determined by high performance liquid chromatography (HPLC). […] The similar photocleavage process in DTAEA NPs took about 5 minutes for the completely consumption of DTAEA (FIG. 6c), which was slightly slow down compared to free DTAEA in the mixture of acetonitrile and water. […] Based on the photocleavage performance of DTAEA and DTNPs, the irradiation duration was set to be no less than 5 min with 505 nm green LED light at 50 mW/cm^2.

[2] = test system: human umbilical vein endothelial cells (HUVEC); assay: Light-triggered cellular uptake in HUVEC cells, fluorescence microscopy; type: cell-based
Protocol: We further investigated the cellular uptake of the photo-released DOX by fluorescence microscopy and flow cytometry. In this work, human umbilical vein endothelial cells (HUVEC) and human retinoblastoma cells (WERI-Rb-1) were employed to investigate the cellular uptake. The cells were treated with various formulations, including free DOX, DOX/DTNPs and DOX/DTNPs+light irradiation (hv).

[3] = Systemic toxicity in treated tumor-bearing mice: body weight and H&E histology; type: in vivo, BALB/c nude mice; settings: drug administration period (Day 0 to Day 10), 5 mg/kg I.V.
Protocol: (§1) Generally, WERI-Rb-1 cells were injected slowly into the vitreous cavity at the right eyes of Bulb/c nude mice for the tumor implantation. […] The light irradiation was performed at the right eyes immediately after injection. […] To evaluate the biodistribution, the mice were euthanized after the above treatment, and their eyes (both sides), heart, lung, liver, spleen and kidney were further exteriorized for ex vivo fluorescence imaging. […] Seven days after the intraocular injection of WERI-Rb-1-GFP-luc cells, the luminescence signals from the cells can be determined by in vivo imaging system for in situ monitoring of orthotopic ocular tumors. […] The dosage of drug administration was precisely controlled based on the body weight of mice and set as 5 mg/kg body weight. The I.V. injection of formulations was applied every two days for five times. […] During the treatment, bioluminescence from the tumors was detected for tumor growth monitoring. […] Considering individual differences, tumor growth curves (FIG. 14b) of different groups were obtained by setting the bioluminescence intensity on the day before treatment (Day 0) as the origin and determining the quantitative changes in the subsequent days. […] The histological patterns of tumor-bearing retina and main organs were studied by hematoxylin and eosin (H&E) staining (FIG. 15 and FIG. 16).

[4] = test system: WERI-Rb-1-GFP-luc orthotopic tumor; assay: Therapeutic effect on orthotopic WERI-Rb-1-GFP-luc tumors, bioluminescence; type: in vivo, BALB/c nude mice; settings: Day 25; 5 mg/kg I.V. every two days for five times; no irradiation
Protocol: as §1

Row | Compound | DTAEA cleaved [1] | red fluorescence intensity (DOX) in cells ([2]; HUVEC, no irradiation) | intracellular distribution of DOX fluorescence ([2]; without irradiation) | body weight decrease [3] | increase of bioluminescence intensity in eyes, compared to Day 0 [4] [folds]
1 | CCN(CC)c1ccc2c(c1)OC(=C(C#N)C#N)C=C2COC(=O)NCCN(CCNC(=O)OCC1=CC(=C(C#N)C#N)Oc2cc(N(CC)CC)ccc21)CCNC(=O)OCC1=CC(=C(C#N)C#N)Oc2cc(N(CC)CC)ccc21 [DTAEA, (DEAdcCM)3-TAEA] | More than 90% | – | – | – | –
2 | COc1cccc2c1C(=O)c1c(O)c3c(c(O)c1C2=O)C[C@@](O)(C(=O)CO)C[C@@H]3O[C@H]1C[C@H](N)[C@H](O)[C@H](C)O1 [free DOX, doxorubicin] | – | as high as the irradiated group | observed in the cell nuclei | about 10% | 64.0
